This note sets out measurements from article PMC5708646, “Single-molecule study of full-length NaChBac by planar lipid bilayer recording” (PLoS ONE, 2017).

The target in the test is T1, NaChBac (Halalkalibacterium halodurans, UniProt Q9KCR8).
T1 construct: gene BH1501
T1 sequence (Q9KCR8 1-274): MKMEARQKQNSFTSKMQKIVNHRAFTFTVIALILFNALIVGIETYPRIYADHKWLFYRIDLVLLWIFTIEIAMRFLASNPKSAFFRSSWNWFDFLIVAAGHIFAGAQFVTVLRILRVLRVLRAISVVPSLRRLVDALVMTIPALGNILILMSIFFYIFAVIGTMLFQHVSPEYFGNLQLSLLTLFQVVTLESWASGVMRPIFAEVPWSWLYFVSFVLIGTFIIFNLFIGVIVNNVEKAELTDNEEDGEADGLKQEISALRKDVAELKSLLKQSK
The test is described as follows: planar lipid bilayer current recording, reconstituted purified channel. The format is biochemical. To be noted: block from the intracellular side, reversible on washout; concentration not printed for this test; step from -120 to +60 mV; POPE/POPG bilayer; pH 7.4.

For the compound `CC[N+](CC)(CC)CC(=O)Nc1c(C)cccc1C` [lidocaine N-ethyl bromide], the “planar lipid bilayer current recording, reconstituted purified channel” value was “It was observed that the current completely dimished (red trace of Fig 3C)”.
